Measurements taken from US11192888B2, “Antibacterial compounds” (priority 2017, dated 2021).
Read-outs that look alike come from different tables or passages of the source. *1 amine or outer side, *2 acyl side, *3 side chain or, on linkers, in order; H or OH if unused. Where a SMILES comes first, the peptide text is derived from it. [ ]: non-standard residue; d: D form. dAla(ψthiazole) = C[C@@H](N[*:1])c1nc(C(=O)[*:2])cs1; Trp(4-Br) = N[C@@H](Cc1c[nH]c2cccc(Br)c12)C(=O)O; Dha = C=C(N)C(=O)O; Sar = CNCC(=O)O

Assays:
[1] = test system: clinical isolates and one wild-type strain of P. aeruginosa; experiment: Growth of P. aeruginosa clinical isolates and wild-type strain with compounds (FIG. 1); format: cell-based, Pseudomonas aeruginosa; conditions: isolates W4, W14, W23, W46 and PAO1; MH media, 13 hours (FIG. 1)
Procedure: FIGS. 1a and 1b are graphs showing the effects of varying concentrations of compounds 2 and 3 according to the invention on the growth of different strains of P. aeruginosa in Müller-Hinton (MH) media, after 13 hours.
The antibacterial activity of compounds 2 and 3 were tested against clinical isolates and one wild-type strain of P. aeruginosa displaying varying antibiotic sensitivity.
The antibacterial activity of compounds 2 and 3 were tested against these clinical isolates and one wild-type strain of P. aeruginosa.

[2] = test system: B. cepasia ATCC25416; experiment: Growth of Burkholderia with compound (FIG. 3), B. cepasia; format: cell-based; conditions: FIG. 3, LB broth, 17 hours
Procedure: (§1) FIG. 3 is a graph showing the effect of varying concentrations of compound 3 according to the invention on the growth of Burkholderia in Lysogeny broth (LB broth) after 17 hours.
(§2) Compound 3 was tested to determine its antibacterial activity against B. multivorans, B. cepasia and B. vietnamiensis.

[3] = test system: B. vietnamiensis J2863; experiment: Growth of Burkholderia with compound (FIG. 3), B. vietnamiensis; format: cell-based; conditions: FIG. 3, LB broth, 17 hours
Procedure: as §1, §2

[4] = test system: Clostridium difficile ATCC 43255; experiment: CLSI MIC, representative gut bacteria; format: cell-based; conditions: Clostridium difficile ATCC 43255
Procedure: (§3) Comparative in vitro bacterial susceptibility to compounds 3, 9 and 10, vancomycin and metronidazole was determined using methods according to the Clinical and Laboratory Standard Institute (CLSI) approved guidelines (M7-A10, M11-A7 or M45-A2) for anaerobic and aerobic organisms.

[5] = test system: Clostridium sordellii ATCC 9714; experiment: CLSI MIC, representative gut bacteria; format: cell-based
Procedure: as §3

[6] = Procedure: In this study, a single oral dose of compound 3 in 0.5% w/v aqueous methylcellulose at 5 mg/kg was administered to nine mice in a 10 mL/kg dosing volume and housed in metabolism cages. Following administration of the compound, serial blood samples of 50 μL was taken from the lateral tail vein at each of 7 post-dosing time-points (0.25, 0.5, 1, 2, 4, 7 and 24 h). Whole blood samples were then diluted 1:1 with water and two 40 μL aliquots were pipetted into duplicate 96 well plate tubes. At the end of 24 h, all faecal samples were collected and pooled. A quantitative bioanalysis by LC-MS/MS of the blood and faecal levels of compound 3 was carried out to determine the oral absorbability and gastrointestinal metabolic stability of compound 3.
To evaluate the metabolic stability of orally administered compound 3, metabolite profiling of the faecal sample was performed.

[7] = test system: P. aeruginosa PAO1; conditions: PAO1, 13 h
[8] = test system: B. multivorans ATCC17616
[9] = test system: Clostridium difficile 630Δerm; conditions: 13 h
[10] = test system: Strep. pyogenes; conditions: 13 h
[11] = test system: Strep. agalactiae; conditions: 13 h
[12] = test system: Clostridium perfringens NCTC 8237
[13] = test system: Bacteroides fragilis ATCC 25285; conditions: ATCC 25285
[14] = test system: Clostridium ramosum DSM 1402
[15] = test system: Clostridium innocuum DSM 1286
[16] = test system: Propionibacterium acnes ATCC 6919
[17] = test system: Bifidobacterium bifidum ATCC 11863
[18] = test system: Bifidobacterium breve ATCC 15700
[19] = test system: Actinomyces viscosus DSM 43327
[20] = test system: Corynebacterium jeikeium NCTC 11914
[21] = test system: Corynebacterium urealyticum NCTC 12011
[22] = test system: Corynebacterium striatium NCTC 764
[23] = test system: Lactobacillus rhamnosus ATCC 53103
[24] = test system: Enterococcus faecalis ATCC 29212
[25] = test system: Enterococcus faecium NCTC 12204
[26] = test system: Staphylococcus aureus ATCC 29213
[27] = test system: Pseudomonas aeruginosa ATCC 27853
[28] = test system: Pseudomonas aeruginosa NCTC 13437
[29] = test system: Escherichia coli ATCC 25922
[30] = test system: Enterobacter cloacae NCTC 13406
[31] = test system: Citrobacter koseri Clinical
[32] = test system: Proteus mirabilis DSM 30116
[33] = test system: C. difficile ATCC 43255 (aka VPI 10463; ribotype 087); experiment: Mouse model of C. difficile-associated disease; format: in vivo, C57BL/6 mice
[34] = test system: Clostridium difficile strains (21 clinical, 7 reference)
[35] = test system: Corynebacterium jeikeium NCTC 11914; experiment: microbe, parasite or virus in culture; conditions: NCTC11914
[36] = test system: Corynebacterium urealyticum NCTC 12011; experiment: microbe, parasite or virus in culture; conditions: NCTC12011
[37] = test system: Corynebacterium striatium NCTC 764; experiment: microbe, parasite or virus in culture; conditions: NCTC764
[38] = test system: Lactobacillus rhamnosus ATCC 53103; experiment: microbe, parasite or virus in culture; conditions: Lacticaseibacillus rhamnosus, ATCC53103
[39] = test system: Enterococcus faecalis ATCC 29212; experiment: microbe, parasite or virus in culture; conditions: ATCC29212
[40] = test system: Enterococcus faecium NCTC 12204; experiment: microbe, parasite or virus in culture; conditions: NCTC12204
[41] = test system: Staphylococcus aureus ATCC 29213; experiment: microbe, parasite or virus in culture; conditions: ATCC29213
[42] = test system: Clostridium difficile strains (21 clinical, 7 reference); experiment: microbe, parasite or virus in culture; conditions: Clostridioides difficile

C=C1NC(=O)[C@@H](C)NC(=O)CNC(=O)[C@H](Cc2c[nH]c3cccc(Br)c23)NC(=O)[C@H](Cc2c[nH]c3ccccc23)NC(=O)c2csc(n2)[C@@H](C)NC(=O)CN(C)C1=O [Compound 3, Cyclo[D-Ala-Thz-Trp-Trp(4-Br)-Gly-D-Ala-Dha-Sar]] (cyclo([Dha][Sar][dAla(ψthiazole)]W[Trp(4-Br)]G[dA]))
85%: share of the mass of compounds detected in pooled faecal sample that corresponds to the compound ([6]; LC-MS metabolite profiling, above control sample)
>64 µg/mL: MIC [12] | MIC [13] | MIC [14] | MIC [15] | MIC [16] | MIC [17] | MIC [18] | MIC [20] | MIC [21] | MIC [22] | MIC [23] | MIC [24] | MIC [25] | MIC [26] | MIC [27] | MIC [28] | MIC [29] | MIC [30] | MIC [31] | MIC [32]
0.13 ± 0.02 µM: IC50 [9]
32 µg/mL: MIC [5]
1.6 ± 1.4 µM: IC50 ([8]; ATCC17616, 25 h)
> 100 µM: IC50 [10] | IC50 [11]
1.0 µg/mL: MIC [4]
63%: compound recovered from pooled faeces ([6]; oral 5 mg/kg, mice, 24 h)
85.7 ± 0.6%: % Growth inhibition at 100 μM [7]; 100
equally susceptible: susceptibility of the isolates to the compound [1]
13.2 ± 3.2 µM: IC50 [7]
64 µg/mL: MIC [19]
highly active: antibacterial activity (growth decrease) [2] | antibacterial activity (growth decrease) [3] | antibacterial activity (growth decrease) ([8]; FIG. 3, LB broth, 17 hours)
undetectable: systemic exposure (blood) ([6]; single oral dose 5 mg/kg, mice, over 24 h)

CN[C@H](CC(C)C)C(=O)N[C@H]1C(=O)N[C@@H](CC(N)=O)C(=O)N[C@H]2C(=O)N[C@H]3C(=O)N[C@H](C(=O)N[C@H](C(=O)O)c4cc(O)cc(O)c4-c4cc3ccc4O)[C@H](O)c3ccc(c(Cl)c3)Oc3cc2cc(c3O[C@@H]2O[C@H](CO)[C@@H](O)[C@H](O)[C@H]2O[C@H]2C[C@](C)(N)[C@H](O)[C@H](C)O2)Oc2ccc(cc2Cl)[C@H]1O [Vancomycin, reference compound]
2 µg/mL: MIC [39]
survived to the end of the study: survival to the end of the study at day-21 post-infection ([33]; 10 mg/kg)
0.5 µg/mL: MIC50 ([34]; 28 C. difficile strains) | MIC90 ([34]; 28 C. difficile strains) | MIC ([34]; C. difficile strain 630 (ribotype 012)) | MIC ([34]; C. difficile strain BI1-FDX^R) | MIC ([34]; C. difficile strain Clin. 1) | MIC ([34]; C. difficile strain Clin. 2) | MIC ([34]; C. difficile strain Clin. 3) | MIC ([34]; C. difficile strain Clin. 6) | MIC ([34]; C. difficile strain Clin. 7) | MIC ([34]; C. difficile strain Clin. 8) | MIC ([34]; C. difficile strain Clin. 9) | MIC ([34]; C. difficile strain Clin. 10) | MIC ([34]; C. difficile strain Clin. 11) | MIC ([34]; C. difficile strain Clin. 12) | MIC ([34]; C. difficile strain Clin. 13) | MIC ([34]; C. difficile strain Clin. 14) | MIC ([34]; C. difficile strain Clin. 15) | MIC ([34]; C. difficile strain Clin. 16) | MIC ([34]; C. difficile strain Clin. 18) | MIC ([34]; C. difficile strain Clin. 20) | MIC ([34]; C. difficile strain Clin. 21) | MIC ([34]; C. difficile strain Clin. 22) | MIC ([34]; C. difficile strain Clin. 23) | MIC ([34]; C. difficile strain Clin. 24) | MIC [37] | MIC [42] | MIC50 [42] | MIC90 [42] | MIC ([42]; ATCC9689) | MIC ([42]; ATCC13366) | MIC ([42]; ATCC43255) | MIC ([42]; ATCC700057) | MIC ([42]; BAA1875) | MIC ([42]; read-out: MIC40)
1 µg/mL: MIC [35] | MIC [36] | MIC [41]
504.00 h: Mean survival ([33]; 10 mg/kg oral BD for 5 days)
> 64 µg/mL: MIC [38] | MIC [40]
